Laboratory results taken from paper PMC6394493 (Cancer Chemotherapy and Pharmacology, 2018).
Where two headings read alike, the source gives them in different places.

Columns and labels:
[1] = all formulations and dose levels tested (≥ 100 mg), qd; Western oncology patients; cited from earlier work
[2] = bid; Western oncology patients; cited from earlier work
[3] = Plasma pharmacokinetics (LC–MS/MS, non-compartmental analysis); format: in vivo, Japanese patients; details: for AUC(0-inf) / AUC(0-t) / Cmax / Tmax: human, plasma, oral; for AUC(0-inf): read-out: AUCinf, Median; for Cmax: read-out: Cmax, Median; for Tmax: read-out: Tmax, Median
Description: The PK parameters were determined by non-compartmental analysis using Phoenix WinNonlin 6.2® (Pharsight, Mountain View, CA).

[4] = 400 mg, Cycle 1 Day 1, 400 mg bid, n = 7
[5] = 400 mg, Cycle 1 Day 1, 400 mg qd, n = 3
[6] = 400 mg, Cycle 1 Day 8, 400 mg bid, n = 6
[7] = 400 mg, Cycle 1 Day 8, 400 mg qd, n = 3
[8] = 400 mg, Cycle 1 Day 28, 400 mg bid, n = 4
[9] = 400 mg, Cycle 1 Day 28, 400 mg qd, n = 3
[10] = 800 mg, Cycle 1 Day 1, 800 mg qd, n = 3
[11] = 800 mg, Cycle 1 Day 8, 800 mg qd, n = 3
[12] = 800 mg, Cycle 1 Day 28, 800 mg qd, n = 3

For `Cn1c(=O)n(-c2ccc(C(C)(C)C#N)cc2)c2c3cc(-c4cnc5ccccc5c4)ccc3ncc21` [BEZ235], the bioavailability [1] is given as “low bioavailability”, the MTD [2] is given as 300 mg and the “dose dependence of Cmax and AUC” value ([3]; 400 to 1400 mg qd) is given as “appeared to increase in a dose-dependent manner”. For the same molecule, the “inter-individual variability, coefficient of variation on the AUC and Cmax” value ([3]; at most of the visits and doses) was “greater than 100%”, the AUC(0-inf) ([3]; 400 mg, Cycle 1 Day 1, 400 mg bid, n = 2) was 2000 ng·h/mL and the AUC(0-t) ([3]; 400 mg, Cycle 1 Day 1, 400 mg bid, n = 4, read-out: AUC0 − 24, Median) was 1760 ng·h/mL. For the same molecule, the AUC(0-t) ([3]; 400 mg, Cycle 1 Day 1, 400 mg bid, n = 7, read-out: AUClast, Median) was 2280 ng·h/mL, the Cmax [3, 4] was 301 ng/mL and the Tmax [3, 4] was 6 h. The AUC(0-inf) ([3]; 400 mg, Cycle 1 Day 1, 400 mg qd, n = 2) was 978 ng·h/mL, the AUC(0-t) ([3]; 400 mg, Cycle 1 Day 1, 400 mg qd, n = 3, read-out: AUC0 − 24, Median) was 1040 ng·h/mL and the AUC(0-t) ([3]; 400 mg, Cycle 1 Day 1, 400 mg qd, n = 3, read-out: AUClast, Median) was 1040 ng·h/mL. The Cmax [3, 5] was 135 ng/mL, the Tmax [3, 5] was 4 h and the AUC(0-inf) ([3]; 400 mg, Cycle 1 Day 8, 400 mg bid, n = 1) was 2790 ng·h/mL. It also gave an AUC(0-t) ([3]; 400 mg, Cycle 1 Day 8, 400 mg bid, n = 5, read-out: AUC0 − 24, Median) of 10700 ng·h/mL, an AUC(0-t) ([3]; 400 mg, Cycle 1 Day 8, 400 mg bid, n = 6, read-out: AUClast, Median) of 9700 ng·h/mL and a Cmax [3, 6] of 1050 ng/mL. For the same molecule, the Tmax [3, 6] was 4 h, the AUC(0-inf) ([3]; 400 mg, Cycle 1 Day 8, 400 mg qd, n = 2) was 14300 ng·h/mL and the AUC(0-t) ([3]; 400 mg, Cycle 1 Day 8, 400 mg qd, n = 3, read-out: AUC0 − 24, Median) was 7350 ng·h/mL. The AUC(0-t) ([3]; 400 mg, Cycle 1 Day 8, 400 mg qd, n = 3, read-out: AUClast, Median) was 7350 ng·h/mL, the Cmax [3, 7] was 754 ng/mL and the Tmax [3, 7] was 4 h. The AUC(0-inf) ([3]; 400 mg, Cycle 1 Day 28, 400 mg bid, n = 1) was 2660 ng·h/mL, the AUC(0-t) ([3]; 400 mg, Cycle 1 Day 28, 400 mg bid, n = 3, read-out: AUC0 − 24, Median) was 29400 ng·h/mL and the AUC(0-t) ([3]; 400 mg, Cycle 1 Day 28, 400 mg bid, n = 4, read-out: AUClast, Median) was 34100 ng·h/mL. The Cmax [3, 8] was 3650 ng/mL, the Tmax [3, 8] was 4 h and the AUC(0-t) ([3]; 400 mg, Cycle 1 Day 28, 400 mg qd, n = 3, read-out: AUC0 − 24, Median) was 8920 ng·h/mL. It also gave an AUC(0-inf) [3, 9] of 10200 ng·h/mL, an AUC(0-t) ([3]; 400 mg, Cycle 1 Day 28, 400 mg qd, n = 3, read-out: AUClast, Median) of 8920 ng·h/mL and a Cmax [3, 9] of 795 ng/mL. It also gave a Tmax [3, 9] of 4 h, an AUC(0-inf) ([3]; 800 mg, Cycle 1 Day 1, 800 mg qd, n = 1) of 1490 ng·h/mL and an AUC(0-t) ([3]; 800 mg, Cycle 1 Day 1, 800 mg qd, n = 3, read-out: AUC0 − 24, Median) of 2560 ng·h/mL. The AUC(0-t) ([3]; 800 mg, Cycle 1 Day 1, 800 mg qd, n = 3, read-out: AUClast, Median) was 2560 ng·h/mL, the Cmax [3, 10] was 154 ng/mL and the Tmax [3, 10] was 8 h. It also gave an AUC(0-inf) ([3]; 800 mg, Cycle 1 Day 8, 800 mg qd, n = 1) of 19900 ng·h/mL, an AUC(0-t) ([3]; 800 mg, Cycle 1 Day 8, 800 mg qd, n = 3, read-out: AUC0 − 24, Median) of 17300 ng·h/mL and an AUC(0-t) ([3]; 800 mg, Cycle 1 Day 8, 800 mg qd, n = 3, read-out: AUClast, Median) of 17300 ng·h/mL. For the same molecule, the Cmax [3, 11] was 1170 ng/mL, the Tmax [3, 11] was 6 h and the AUC(0-inf) ([3]; 800 mg, Cycle 1 Day 28, 800 mg qd, n = 2) was 13500 ng·h/mL. For the same molecule, the AUC(0-t) ([3]; 800 mg, Cycle 1 Day 28, 800 mg qd, n = 3, read-out: AUC0 − 24, Median) was 25000 ng·h/mL, the AUC(0-t) ([3]; 800 mg, Cycle 1 Day 28, 800 mg qd, n = 3, read-out: AUClast, Median) was 24900 ng·h/mL and the Cmax [3, 12] was 1980 ng/mL. It also gave a Tmax [3, 12] of 2 h, an AUC(0-inf) ([3]; 1000 mg, Cycle 1 Day 1, 1000 mg qd, n = 3) of 1410 ng·h/mL and an AUC(0-t) ([3]; 1000 mg, Cycle 1 Day 1, 1000 mg qd, n = 4, read-out: AUC0 − 24, Median) of 4330 ng·h/mL. The AUC(0-t) ([3]; 1000 mg, Cycle 1 Day 1, 1000 mg qd, n = 6, read-out: AUClast, Median) was 4490 ng·h/mL.
